Assays:
[1] = 101 kPa, Liquid
[2] = xn = mol fraction of the nth substance listed; settings: 101 kPa, Liquid

Cc1ccccc1 [toluene]
[1]
Settings	mass density [kg/m3]
303.15 K	857.47
313.15 K	848.07

Cc1ccc(O)cc1 [4-methylphenol] + O
[2], 303.15 K
Settings	mass density [kg/m3]
x1 = 0.548	1020.42
x1 = 0.6243	1021.77
x1 = 0.6758	1022.35
x1 = 0.74	1023.33
x1 = 0.7976	1023.92
x1 = 0.8897	1025.1

CCCCCCCC [octane]
Settings	mass density [kg/m3]
[1], 303.15 K	694.52

Cc1cccc(O)c1 [3-methylphenol] + CCCCCCCC
[2], 303.15 K
Settings	mass density [kg/m3]
x2 = 0.1197	970.59
x2 = 0.2473	916.86
x2 = 0.3868	864.19
x2 = 0.5012	825.55
x2 = 0.6387	783.91
x2 = 0.7818	745.29
x2 = 0.8773	721.91

Oc1ccccc1 [phenol]
Settings	mass density [kg/m3]
[1], 313.15 K	1058.3

Cc1ccccc1O [2-methylphenol] + O
[2], 303.15 K
Settings	mass density [kg/m3]
x1 = 0.5953	1033.22
x1 = 0.675	1034.33
x1 = 0.8012	1035.55
x1 = 0.8184	1035.9
x1 = 0.8443	1036.16
x1 = 0.8903	1036.47
x1 = 0.8909	1036.26
x1 = 0.9409	1036.95

Cc1ccccc1O [2-methylphenol]
Settings	mass density [kg/m3]
[1], 303.15 K	1036.94

Cc1ccc(O)cc1 [4-methylphenol]
Settings	mass density [kg/m3]
[1], 303.15 K	1025.9

Oc1ccccc1 [phenol] + O
[2], 313.15 K
Settings	mass density [kg/m3]
x1 = 0.3794	1038.84
x1 = 0.4653	1042.74
x1 = 0.6176	1048.12
x1 = 0.7052	1050.69
x1 = 0.8247	1054.06
x1 = 0.9099	1056.28

Cc1ccccc1O [2-methylphenol] + CCCCCCCC
[2], 303.15 K
Settings	mass density [kg/m3]
x2 = 0.0779	998.31
x2 = 0.1634	958.43
x2 = 0.2569	918.23
x2 = 0.299	901.26
x2 = 0.36	877.71
x2 = 0.4277	853.18
x2 = 0.4797	835.08
x2 = 0.5787	803.61
x2 = 0.6607	779.19
x2 = 0.7664	750.13
x2 = 0.8032	740.51
x2 = 0.9143	713.35

Oc1ccccc1 [phenol] + Cc1ccccc1
[2], 313.15 K
Settings	mass density [kg/m3]
x2 = 0.0999	1033.8
x2 = 0.1576	1021.66
x2 = 0.2581	998.46
x2 = 0.3492	978.14
x2 = 0.4363	959.22
x2 = 0.5438	936.46
x2 = 0.6351	917.72
x2 = 0.7288	898.99
x2 = 0.8334	878.75
x2 = 0.9015	865.97

Cc1cccc(O)c1 [3-methylphenol] + O
[2], 303.15 K
Settings	mass density [kg/m3]
x1 = 0.547	1020.94
x1 = 0.5754	1021.37
x1 = 0.6312	1022.09
x1 = 0.6558	1022.4
x1 = 0.704	1022.95
x1 = 0.7933	1023.97
x1 = 0.7997	1024.04
x1 = 0.8215	1024.36
x1 = 0.845	1024.52
x1 = 0.8635	1024.3
x1 = 0.8759	1024.67
x1 = 0.8839	1024.94
x1 = 0.9231	1025.3
x1 = 0.9426	1025.49
x1 = 0.9703	1025.78

Cc1ccc(O)cc1 [4-methylphenol] + Cc1ccccc1
[2], 303.15 K
Settings	mass density [kg/m3]
x2 = 0.0588	1016.31
x2 = 0.1156	1007.12
x2 = 0.1715	997.89
x2 = 0.2813	979.91
x2 = 0.3882	962.16
x2 = 0.4914	944.32
x2 = 0.5885	929.7
x2 = 0.6906	912.26
x2 = 0.775	897.37
x2 = 0.8337	887.52
x2 = 0.886	877.87
x2 = 0.962	864.24

Cc1cccc(O)c1 [3-methylphenol] + Cc1ccccc1
[2], 303.15 K
Settings	mass density [kg/m3]
x2 = 0.0563	1016.89
x2 = 0.0853	1012.17
x2 = 0.1619	999.57
x2 = 0.2521	984.6
x2 = 0.3053	975.73
x2 = 0.3799	963.22
x2 = 0.4494	951.45
x2 = 0.5205	939.49
x2 = 0.7198	905.42
x2 = 0.8129	889.49
x2 = 0.8723	879.32
x2 = 0.9534	865.4

Cc1ccccc1O [2-methylphenol] + Cc1ccccc1
[2], 303.15 K
Settings	mass density [kg/m3]
x2 = 0.0529	1027.55
x2 = 0.0849	1021.91
x2 = 0.1409	1011.86
x2 = 0.203	1000.75
x2 = 0.2749	987.89
x2 = 0.341	975.95
x2 = 0.4343	959.13
x2 = 0.5187	943.88
x2 = 0.6073	927.88
x2 = 0.6873	913.43
x2 = 0.7547	901.26
x2 = 0.7852	895.73
x2 = 0.8381	886.24
x2 = 0.8481	884.43
x2 = 0.9068	873.9
x2 = 0.9346	869.01
x2 = 0.9737	862.08

Cc1cccc(O)c1 [3-methylphenol]
Settings	mass density [kg/m3]
[1], 303.15 K	1025.95
